Measurements as given in PubChem BioAssay AID206 (DTP/NCI, 2004).
Several values for one entry are separate records, joined by “and”; a condition that tells them apart may be missing. Equal entries are not always repeated. Results filed as inconclusive are left out.

Test system: nude mice, HT29 intrarenal xenograft, tumor weight T/C
Assay: NCI In Vivo Anticancer Drug Screen. Data for tumor model HT29;CX-1 Human Adenocarcinoma (MER+) (intrarenal inoculation) in NU/NU Swiss (nude) mice
Settings: endpoint: mean tumor weight change, higher = larger tumour
How it was run: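 Endpoint measured as tumor size or survival; ratio reported is treated group over vehicle controls.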

[1] = dose: 37.5 mg/kg/injection, schedule: Q04DX004 (sc), vehicle: suspension in saline
[2] = dose: 150.0 mg/kg/injection, schedule: Q04DX004 (sc), vehicle: suspension in saline
[3] = dose: 600.0 mg/kg/injection, schedule: Q04DX004 (sc), vehicle: suspension in saline
[4] = dose: 75.0 mg/kg/injection, schedule: Q04DX004 (sc), vehicle: saline with Tween-80
[5] = dose: 150.0 mg/kg/injection, schedule: Q04DX004 (sc), vehicle: saline with Tween-80
[6] = dose: 300.0 mg/kg/injection, schedule: Q04DX004 (sc), vehicle: saline with Tween-80
[7] = dose: 600.0 mg/kg/injection, schedule: Q04DX004 (sc), vehicle: saline with Tween-80
[8] = dose: 300.0 mg/kg/injection, schedule: Q04DX004 (sc), vehicle: Klucel (hydroxypropylcellulose) (HPC)
[9] = dose: 600.0 mg/kg/injection, schedule: Q04DX004 (sc), vehicle: Klucel (hydroxypropylcellulose) (HPC)
[10] = dose: 200.0 mg/kg/injection, schedule: Q04DX004 (sc), vehicle: saline with Tween-80
[11] = dose: 1200.0 mg/kg/injection, schedule: Q04DX004 (sc), vehicle: saline with Tween-80
[12] = dose: 2400.0 mg/kg/injection, schedule: Q04DX004 (sc), vehicle: saline with Tween-80
[13] = dose: 25.0 mg/kg/injection, schedule: Q01DX010 (sc), vehicle: Klucel (hydroxypropylcellulose) (HPC)
[14] = dose: 50.0 mg/kg/injection, schedule: Q04DX004 (sc), vehicle: saline with Tween-80
[15] = dose: 100.0 mg/kg/injection, schedule: Q04DX004 (sc), vehicle: saline with Tween-80

## Cc1ccc2nc(-c3ccc4nc(-c5ccc(N=Nc6ccc(-c7nc8ccc(-c9nc%10ccc(C)c(S(=O)(=O)O)c%10s9)cc8s7)cc6)cc5)sc4c3)sc2c1S(=O)(=O)O
dose: 200.0 mg/kg/injection, schedule: Q04DX004 (sc), vehicle: suspension in saline
  T/C: 190 % of control
dose: 400.0 mg/kg/injection, schedule: Q04DX004 (sc), vehicle: suspension in saline
  T/C: 109 % of control
dose: 800.0 mg/kg/injection, schedule: Q04DX004 (sc), vehicle: suspension in saline
  T/C: 221 % of control
dose: 1600.0 mg/kg/injection, schedule: Q04DX004 (sc), vehicle: suspension in saline
  T/C: 50 % of control

## CSC(SC)=C1C(=O)NC(=O)NC1=O
dose: 18.7 mg/kg/injection, schedule: Q04DX004 (sc), vehicle: suspension in saline
  T/C: 66 % of control
[1]
  T/C: 77 % of control
dose: 75.0 mg/kg/injection, schedule: Q04DX004 (sc), vehicle: suspension in saline
  T/C: 49 % of control
[2]
  T/C: 56 % of control
[3]
  T/C: 97 % of control

## O=NN(CCCl)C(=O)NC1CCCCC1
dose: 8.0 mg/kg/injection, schedule: Q01DX010 (sc), vehicle: saline with Tween-80
  T/C: 85 % of control
dose: 8.0 mg/kg/injection, schedule: Q04DX004 (sc), vehicle: carboxymethylcellulose (CMC)
  T/C: 99 % of control
dose: 16.0 mg/kg/injection, schedule: Q01DX010 (sc), vehicle: saline with Tween-80
  T/C: 42 % of control
dose: 16.0 mg/kg/injection, schedule: Q04DX004 (sc), vehicle: carboxymethylcellulose (CMC)
  T/C: 86 % of control
dose: 25.0 mg/kg/injection, schedule: Q04DX004 (sc), vehicle: Klucel (hydroxypropylcellulose) (HPC)
  T/C: 63 % of control
dose: 32.0 mg/kg/injection, schedule: Q01DX010 (sc), vehicle: saline with Tween-80
  T/C: 77 % of control
dose: 32.0 mg/kg/injection, schedule: Q04DX004 (sc), vehicle: carboxymethylcellulose (CMC)
  T/C: 89 % of control
dose: 50.0 mg/kg/injection, schedule: Q04DX004 (sc), vehicle: Klucel (hydroxypropylcellulose) (HPC)
  T/C: 116 % of control
dose: 64.0 mg/kg/injection, schedule: Q04DX004 (sc), vehicle: carboxymethylcellulose (CMC)
  T/C: 101 % of control

## ClCc1ccc2ccccc2n1
[4]
  T/C: 82 % of control
[5]
  T/C: 88 % of control
[6]
  T/C: 86 % of control
[7]
  T/C: 53 % of control

## CC1=C(/C=C/C(C)=C/C=C/C(C)=C/C=O)C(C)(C)CCC1
[5]
  T/C: 61 % of control
[6]
  T/C: 62 % of control
[7]
  T/C: 67 % of control

## Cc1ccc(C2NC(=S)N3C(c4ccc(C)cc4)NC(=S)N23)cc1 (stereo not drawn)
[8]
  T/C: 75 % of control
[9]
  T/C: 80 % of control
dose: 1200.0 mg/kg/injection, schedule: Q04DX004 (sc), vehicle: Klucel (hydroxypropylcellulose) (HPC)
  T/C: 69 % of control
dose: 2400.0 mg/kg/injection, schedule: Q04DX004 (sc), vehicle: Klucel (hydroxypropylcellulose) (HPC)
  T/C: 75 % of control

## Cc1ccc(N)c(N)c1
[10]
  T/C: 151 % of control
dose: 400.0 mg/kg/injection, schedule: Q04DX004 (sc), vehicle: saline with Tween-80
  T/C: 85 % of control
dose: 800.0 mg/kg/injection, schedule: Q04DX004 (sc), vehicle: saline with Tween-80
  T/C: 124 % of control

## Oc1cc2ccccc2c(-c2c(O)c(O)cc3ccccc23)c1O
dose: 225.0 mg/kg/injection, schedule: Q04DX004 (sc), vehicle: saline with Tween-80
  T/C: 101 % of control
dose: 450.0 mg/kg/injection, schedule: Q04DX004 (sc), vehicle: saline with Tween-80
  T/C: 55 % of control
dose: 900.0 mg/kg/injection, schedule: Q04DX004 (sc), vehicle: saline with Tween-80
  T/C: 86 % of control
[11]
  T/C: 120 % of control
dose: 1800.0 mg/kg/injection, schedule: Q04DX004 (sc), vehicle: saline with Tween-80
  T/C: 28 % of control
[12]
  T/C: 94 % of control

## S=c1nc[nH]c2nc[nH]c12
dose: 12.5 mg/kg/injection, schedule: Q01DX010 (sc), vehicle: Klucel (hydroxypropylcellulose) (HPC)
  T/C: 200 % of control
[13]
  T/C: 81 % of control

## Nc1cc(Cl)c2[nH]cnc2n1
dose: 100.0 mg/kg/injection, schedule: Q04DX004 (sc), vehicle: water
  T/C: 160 % of control
dose: 400.0 mg/kg/injection, schedule: Q04DX004 (sc), vehicle: water
  T/C: 96 % of control

## COc1ccc2c(c1)CCn1c(C)c(COC(=O)NC(C)C)c(COC(=O)NC(C)C)c1-2
dose: 300.0 mg/kg/injection, schedule: Q04DX004 (sc), vehicle: distilled water + Tween-80
  T/C: 165 % of control
dose: 600.0 mg/kg/injection, schedule: Q04DX004 (sc), vehicle: distilled water + Tween-80
  T/C: 191 % of control

## C[C@]12CC[C@@H]3c4ccc(O)cc4CC[C@H]3[C@@H]1CC[C@@H]2O
[8]
  T/C: 54 % of control
[9]
  T/C: 75 % of control

## CC(=O)N(C)c1ccc(Nc2cc(C)[nH]c3ccc4ncnc4c23)cc1
[14]
  T/C: 95 % of control
[15]
  T/C: 68 % of control
[10]
  T/C: 79 % of control

## C[n+]1cccc(NC(=O)c2ccc(NC(=O)C34CCC(C(=O)Nc5ccc(C(=O)Nc6ccc[n+](C)c6)cc5)(CC3)CC4)cc2)c1
dose: 12.5 mg/kg/injection, schedule: Q04DX004 (sc), vehicle: saline with Tween-80
  T/C: 118 % of control
dose: 25.0 mg/kg/injection, schedule: Q04DX004 (sc), vehicle: saline with Tween-80
  T/C: 47 % of control
[14]
  T/C: 7 % of control and 21 % of control

## COc1cc2cc[n+](C)c(Cc3ccccc3)c2cc1OC
dose: 18.75 mg/kg/injection, schedule: Q04DX004 (sc), vehicle: Klucel (hydroxypropylcellulose) (HPC)
  T/C: 73 % of control
dose: 37.5 mg/kg/injection, schedule: Q04DX004 (sc), vehicle: Klucel (hydroxypropylcellulose) (HPC)
  T/C: 108 % of control
dose: 75.0 mg/kg/injection, schedule: Q04DX004 (sc), vehicle: Klucel (hydroxypropylcellulose) (HPC)
  T/C: 54 % of control

## Nc1nc2ccc(NCc3ccc(C(=O)NC(CCC(=O)O)C(=O)O)cc3)cc2c(=O)[nH]1 (stereo not drawn)
[14]
  T/C: 36 % of control
[15]
  T/C: 46 % of control and 50 % of control
[10]
  T/C: 16 % of control and 29 % of control

## CC1(C)CC(=O)C(CSC(=O)c2ccccc2)C(=O)C1
[13]
  T/C: 79 % of control
dose: 100.0 mg/kg/injection, schedule: Q01DX010 (sc), vehicle: Klucel (hydroxypropylcellulose) (HPC)
  T/C: 120 % of control

## CCN(CC)CCNc1ccc(C)c2sc3ccc(O)cc3c(=O)c12
[4]
  T/C: 53 % of control
[5]
  T/C: 74 % of control
[7]
  T/C: 103 % of control
[11]
  T/C: 41 % of control
[12]
  T/C: 58 % of control

## CN=S(=O)(OCCCCCOS(=O)(=NC)c1ccc(C)cc1)c1ccc(C)cc1 (stereo not drawn)
[5]
  T/C: 81 % of control

## CC1=NN(c2cccc(S(=O)(=O)O)c2)C(=O)C1N=Nc1cc(Cl)cc(S(=O)(=O)O)c1O.CC1=NN(c2cccc(S(=O)(=O)O)c2)C(=O)C1N=Nc1cc(Cl)cc(S(=O)(=O)O)c1O.[Cr] (stereo not drawn)
dose: 150.0 mg/kg/injection, schedule: Q04DX004 (sc), vehicle: saline
  T/C: 94 % of control
dose: 300.0 mg/kg/injection, schedule: Q04DX004 (sc), vehicle: saline
  T/C: 121 % of control
dose: 600.0 mg/kg/injection, schedule: Q04DX004 (sc), vehicle: saline
  T/C: 61 % of control

## C=C(OP(=O)(OC)OC)Sc1ccccc1C
dose: 100.0 micrograms/kg/injection, schedule: Q04DX004 (sc), vehicle: Klucel (hydroxypropylcellulose) (HPC)
  T/C: 84 % of control
dose: 400.0 micrograms/kg/injection, schedule: Q04DX004 (sc), vehicle: Klucel (hydroxypropylcellulose) (HPC)
  T/C: 95 % of control
dose: 800.0 micrograms/kg/injection, schedule: Q04DX004 (sc), vehicle: Klucel (hydroxypropylcellulose) (HPC)
  T/C: 118 % of control

## O=C(Nc1cccc(Cl)c1)ON1C(=O)C2C(C1=O)C1(Cl)C(Cl)C(Cl)C2(Cl)C1(Cl)Cl (stereo not drawn)
[5]
  T/C: 90 % of control
[7]
  T/C: 169 % of control
[11]
  T/C: 89 % of control

## O=c1n(CC2CO2)c(=O)n(CC2CO2)n1CC1CO1 (stereo not drawn)
[1]
  T/C: 76 % of control

## C(CC1CO1)C1CO1 (stereo not drawn)
dose: 50.0 mg/kg/injection, schedule: Q01DX010 (sc), vehicle: saline
  T/C: 35 % of control
dose: 100.0 mg/kg/injection, schedule: Q01DX010 (sc), vehicle: saline
  T/C: 37 % of control

## CCCCn1cnc2c(=S)nc[nH]c21
[2]
  T/C: 68 % of control
dose: 300.0 mg/kg/injection, schedule: Q04DX004 (sc), vehicle: suspension in saline
  T/C: 120 % of control
[3]
  T/C: 150 % of control

## CNc1n[n+](-c2ccccc2)no1
dose: 37.5 mg/kg/injection, schedule: Q04DX004 (sc), vehicle: water
  T/C: 117 % of control
dose: 75.0 mg/kg/injection, schedule: Q04DX004 (sc), vehicle: water
  T/C: 115 % of control
